# In patent US20110059186A1, “CANCER STEM CELL-TARGETED AND DRUG RESISTANT CANCER THERAPY” (KOMINOX USA, INC., priority 2009, published 2011):
# Where two headings read alike, the source gives them in different places.
# Legend:
# Assay type in all cases: cell-based, human
# [1] = system: side population of DU145 cells
# [2] = system: side population of DU145/Pac200 cells
# [3] = system: side population of LnCaP cells
# Method: (§1) Three samples were analyzed each time. Of the samples one was treated with DCV only, another was treated with DCV and 50 μM Verapamil (PgP inhibitor), and the last was treated with DCV and 10 μM Fumitremorgin C (FTC, BCRP inhibitor). The samples were then read and analyzed using flow cytometry.
# (§2) Flow Cytometry: Samples were read on a BDLSR II flow cytometer. […] Detectors at 450/50 (blue) and 680/30 (red) intercepted the emitted wavelength and plotted the data on the scatter plot accordingly. CD44 and Pgp staining was performed using PE (Pgp) or APC (CD44) labeled antibodies and their isotype controls following routine procedures for epitope labeling.
# (§3) Each of the prostate cell lines was analyzed for the existence of a cancer stem-like cell fraction using DCV side population analysis. […] The occurrence of a SP is based on the expression of drug efflux pumps such as P-glycoprotein or BCRP, which are responsible for preventing standard cytotoxic therapy from working. […] Because the hormone therapies, e.g., androgen synthesis inhibitors, are not substrates of drug efflux pumps, these findings are not surprising.
# [4] = system: side population of LAPC-4 cells
# Method: as §1, §2, §3
# [5] = system: side population of DU145/Doc50 cells
# Method: as §1, §2, §3
# [6] = system: side population of LAPC-4/CSS100 cells
# Method: as §1, §2, §3
# [7] = system: side population of LnCaP/C81 cells
# Method: as §1, §2, §3
# [8] = system: DU145 wt cells; test: MTT proliferation assay, DU145 wt
# Method: (§4) Cell Lines: DU145 wt, DU145/Pac200 and DU145/Doc50 cells were provided by Dr. Hussain, UMGCC, University of Maryland. The cell lines were cultured as recommended; in 1:1 DMEM/F12 media (Invitrogen) supplemented with 5% FBS, 1% antibiotics and grown under standard conditions at 37° C. and 5% CO2. Paclitaxel and docetaxel resistant clones were kept under selection pressure of the drugs.
# (§5) MTT Proliferation Assay: Exponentially growing cells were harvested and plated in 96-well plates (1,500/well for DU145 wt, and 2,000-3,000/well for DU145/Pac200 and DU145/Doc50). Drugs being tested were added at concentrations ranging from 0.01 μM to 100 μM to asses their growth inhibitory potential. After 5 days of continuous exposure to drug, the vital dye 3-(4,5-dimethylthiazol-2-yl)-2,5-diphenyltetrazoliumbromide (MTT) was added to the plates. The conversion of MTT to purple formazan by viable cells was measured using a Synergy2 plate reader at 550 nm and Gen5 software. Growth curves were generated using Microsoft Excel and growth inhibitory concentration 50 (IC50) and 100% were determined.
# [9] = system: DU145/Pac200 (paclitaxel resistant) cells; test: MTT proliferation assay, DU145/Pac200
# Method: as §4, §5
# [10] = system: DU145/Doc50 (docetaxel resistant) cells; test: MTT proliferation assay, DU145/Doc50
# Method: as §4, §5
# [11] = system: Pgp positive cell population of taxane-resistant prostate cancer cell lines; test: Pgp surface expression by flow cytometry; conditions: treatment at IC50 for 72 hours
# Method: Flow Cytometry: Samples were read on a BDLSR II flow cytometer. A […] violet laser excited the DCV dye producing varying wavelengths based on cell differentiation. Detectors at 450/50 (blue) and 680/30 (red) intercepted the emitted wavelength and plotted the data on the scatter plot accordingly. CD44 and Pgp staining was performed using PE (Pgp) or APC (CD44) labeled antibodies and their isotype controls following routine procedures for epitope labeling.
# The drug efflux pump (Pgp) is functionally expressed (at the membrane) in the majority of cells in the taxane-resistant prostate cancer cell lines, which is expected since the SP of those cell lines was suppressible with the drug efflux pump inhibitor verapamil. Treatment with KML001 at IC50 for 72 hours reduced the Pgp positive cell population, which corroborates the results of the clonogenic and SP assay.
# [12] = system: LnCaP/C81 cells; conditions: read-out: IC50 KML001
# [13] = system: DU145/Pac200 cancer stem cell population; conditions: read-out: IC50, colony forming capability
# [14] = system: DU145 cancer stem cell population; conditions: read-out: IC50, colony forming capability
# [15] = system: prostate cancer cell lines (taxane-resistant, androgen resistant and parental); test: MTT assay across the panel of prostate cancer cell lines
# Method: as §5
# Taxane resistant cell lines DU145/Pac200 (highly pacitaxel resistant) and DU145/Doc50 (highly docetaxel resistant) together with the parental cell line DU145 as well as the androgen resistant cancer cell lines (LNCaP/C81 and LAPC-4/CSS100) and their corresponding hormone responsive parental cell lines (LNCaP and LAPC-4) were tested for their response to sodium meta arsenite.
# The cancer cell lines that were resistant to paclixel and docetaxel were tested using a well-established tumor clonigenic stem cell assay for their response to KML001. (FIG. 6) The assay allows only the cancer stem cell population to grow in a soft agar matrix owing to their self-renewal capability. […]
# [16] = system: hTERT transcript
# [17] = system: LnCaP cells; conditions: read-out: IC50 KML001
# [18] = system: LAPC-4 cells; conditions: read-out: IC50 KML001
# [19] = system: LAPC-4/CSS100 cells; conditions: read-out: IC50 KML001
# [20] = DU145/Pac200 relative to DU145 wt
# [21] = Du145 Doc50 relative to DU145 wt
compound,measurement,setting,value
COc1ccc(CCN(C)CCCC(C#N)(c2ccc(OC)c(OC)c2)C(C)C)cc1OC (stereo not shown) [Verapamil],SP % with Verapamil,"[1]; DU145, DCV with 50 μM Verapamil, SP 1.04 % without inhibitor",0.16%
same,SP % with Verapamil,[2],0.07%
same,SP % with Verapamil,[3],0.12%
same,SP % with Verapamil,[4],1.63%
same,SP % with Verapamil,[5],1.35%
same,SP % with Verapamil,[6],0.19%
same,SP % with Verapamil,[7],0.07%
CC(=O)O[C@@]12CO[C@@H]1C[C@H](O)[C@@]1(C)C(=O)[C@H](O)C3=C(C)[C@@H](OC(=O)[C@H](O)[C@@H](NC(=O)OC(C)(C)C)c4ccccc4)C[C@@](O)([C@@H](OC(=O)c4ccccc4)[C@H]21)C3(C)C [Docetaxel],Docetaxel Resistance (fold),[8]; DU145 wt (reference line),1 fold
same,IC50,"[8]; Homo sapiens, DU-145, DU145 wt, read-out: Docetaxel IC50",0.0005 µM
same,Docetaxel Resistance (fold),[9]; [20],400 fold
same,IC50,"[9]; Homo sapiens, DU-145, DU145/Pac200, read-out: Docetaxel IC50",0.2 µM
same,Docetaxel Resistance (fold),[10]; [21],2000 fold
same,IC50,"[10]; Homo sapiens, DU-145, Du145 Doc50, read-out: Docetaxel IC50",1 µM
CC(=O)O[C@H]1C(=O)[C@@]2(C)[C@H]([C@H](OC(=O)c3ccccc3)[C@]3(O)C[C@H](OC(=O)[C@H](O)[C@@H](NC(=O)c4ccccc4)c4ccccc4)C(C)=C1C3(C)C)[C@]1(OC(C)=O)CO[C@@H]1C[C@@H]2O [Paclitaxel],Paclitaxel Resistance (fold),[8]; DU145 wt (reference line),1 fold
same,IC50,"[8]; Homo sapiens, DU-145, DU145 wt, read-out: Paclitaxel IC50",0.0025 µM
same,Paclitaxel Resistance (fold),[9]; [20],140 fold
same,IC50,"[9]; Homo sapiens, DU-145, DU145/Pac200, read-out: Paclitaxel IC50",0.35 µM
same,Paclitaxel Resistance (fold),[10]; [21],400 fold
same,IC50,"[10]; Homo sapiens, DU-145, Du145 Doc50, read-out: Paclitaxel IC50",1 µM
"COc1ccc2c3c([nH]c2c1)[C@H](C=C(C)C)N1C(=O)[C@@H]2CCCN2C(=O)[C@@H]1C3 [FTC, Fumitremorgin C]",SP % with FTC,"[1]; DU145, DCV with 10 μM FTC, SP 1.04 % without inhibitor",0.06%
same,SP % with FTC,"[2]; DU145/Pac200, DCV with 10 μM FTC, SP 55 % without inhibitor",56.5%
same,inhibition of SP by efflux pump inhibitor,[2]; Pac resistant DU145 cells,not
same,suppression of SP by efflux pump inhibitor,[3]; LnCaP parental line,suppressible
same,SP % with FTC,"[3]; LnCaP, DCV with 10 μM FTC, SP 0.66 % without inhibitor",0.04%
same,suppression of SP by efflux pump inhibitor,[4]; LAPC-4,suppressible
same,SP % with FTC,"[4]; LAPC-4, DCV with 10 μM FTC, SP 1.54 % without inhibitor",2.24%
same,SP % with FTC,"[5]; DU145/Doc50, DCV with 10 μM FTC, SP 40.3 % without inhibitor",18.35%
same,inhibition of SP by efflux pump inhibitor,[5]; Doc resistant DU145 cells,not
same,SP % with FTC,"[6]; LAPC-4/CSS100, DCV with 10 μM FTC, SP 0.36 % without inhibitor",0.30%
same,suppression of SP by efflux pump inhibitor,[6]; hormone resistant derivative of LAPC-4,suppressible
same,suppression of SP by efflux pump inhibitor,[7]; LnCaP/C81,suppressible
same,SP % with FTC,"[7]; LnCaP/C81, DCV with 10 μM FTC, SP 0.16 % without inhibitor",0.11%
"O=[As][O-].[Na+] [KML001, sodium meta arsenite]",Pgp positive cell population,[11],reduced
same,effect on mature (non-SP) cells after pretreatment,[1],also eradicated
same,effect on side population (SP) after pretreatment,[1],drastically reducing the SP
same,IC50,[12],1 µM
same,effect on mature (non-SP) cells after pretreatment,[2],also eradicated
same,effect on side population (SP) after pretreatment,[2],drastically reducing the SP
same,IC100 concentration,[8],13 µM
same,growth inhibition,[8],marked inhibition of growth
same,IC50,[8]; read-out: IC50 KML001,4 µM
same,growth inhibition,"[9]; DU145/Pac200, MTT",marked inhibition of growth
same,IC50,"[9]; DU145/Pac200, MTT, 5 days continuous exposure, read-out: IC50 KML001",6 µM
same,IC50,[13],6 µM
same,IC50,[14],6 µM
same,growth inhibition,"[10]; DU145/Doc50, MTT",marked inhibition of growth
same,IC50,"[10]; DU145/Doc50, MTT, 5 days continuous exposure, read-out: IC50 KML001",5 µM
same,sensitivity of resistant versus parental cell lines,[15]; growth curves from standard MTT assays,equally effective
same,IC50,"[15]; taxane-resistant, androgen resistant and hormone responsive parental lines, read-out: IC50's across all prostate cancer cell lines",1 to 6 µM
same,hTERT transcript level,[16],significantly decreases
same,IC50,[17],4 µM
same,IC50,[18],4 µM
same,IC50,[19],3 µM
N.N.[Cl][Pt][Cl] [cisplatin],IC50,"[8]; DU145 parental, standard MTT, read-out: IC50 of cisplatin",4 µM
same,IC50,"[9]; DU145/Pac200, standard MTT, read-out: IC50 of cisplatin",3 µM
